The test system of one assay is MKN-45. Kind of assay: Antiproliferative activity against human MKN-45 cells assessed as reduction in cell viability after 24 hrs by CCK-8 assay. The format is functional, cell-based. As to conditions: MKN-45, 24 h. (In general: Tetrazolium assays rely on reduction of a dye to a coloured formazan, in cell work by metabolically active cells.)
The next assay relates to HCT-116. Put plainly: Antiproliferative activity against human HCT-116 cells assessed as reduction in cell viability after 24 hrs by CCK-8 assay. The format is functional, cell-based. As to conditions: HCT-116, 24 h.
For another assay, the target named is Tubulin (Sus scrofa, UniProt P02554+P02550). Put plainly: Inhibition of pig brain tubulin polymerization by spectrophotometric method. In kind it is tissue-based.
The next assay has as its system HepG2. Kind of assay: Antiproliferative activity against human HepG2 cells assessed as reduction in cell viability after 24 hrs by CCK-8 assay. The format is functional, cell-based. As to conditions: HepG2, 24 h.
A further assay concerns MGC-803. Kind of assay: Antiproliferative activity against human MGC-803 cells assessed as reduction in cell viability after 24 hrs by CCK-8 assay. The format is functional, cell-based. As to conditions: MGC-803, 24 h.
The next assay concerns HeLa. Put plainly: Antiproliferative activity against human HeLa cells assessed as reduction in cell viability after 24 hrs by CCK-8 assay. In kind it is functional, cell-based.
Assay [1] is described as follows: Inhibition of Arylsulfatase (unknown origin) using potassium p-nitrophenyl sulfate as substrate incubated for 5 mins. The arrangement: species or system Homo sapiens.
The subject of another assay is MCF7. Put plainly: Antiproliferative activity against human MCF7 cells assessed as reduction in cell viability after 24 hrs by CCK-8 assay. The format is functional, cell-based. The following applies: MCF7, 24 h.
Assay [2] is described as follows: Inhibition of bovine brain tubulin polymerization by spectrophotometric method. In kind it is tissue-based, Bos taurus.

Structures are written as SMILES. Where only a bound is given, the exact number is not on record here.

In general, IC50 refers to the point on the concentration scale where inhibition reaches its midpoint. In the case of `COc1ccc(/C=C/c2cc(OC)c(OC)c(OC)c2)cc1OS(N)(=O)=O`, the 50% inhibitory concentration (IC50) was found to be 10.5 µM with MKN-45; 1.57 µM in the assay with HCT-116; 55.7 µM against Tubulin; 0.87 µM with HepG2; 2.98 µM with MGC-803; 4.5 µM in the assay with HeLa. Moreover, the IC50 in assay [1] amounted to 12.9 µM; in the assay with MCF7 it was 5.44 µM.

For the compound `COc1ccc(CCc2cc(OC)c(OC)c(OC)c2)cc1OS(N)(=O)=O`, the IC50 in the assay on MKN-45 was 11.9 µM; in the assay on HCT-116 it was 2.63 µM; against Tubulin, over 100 µM; in the assay with HepG2 it was 1.06 µM; in the assay with MGC-803, 3.61 µM; in the assay with HeLa, 9.04 µM. Further, the IC50 in assay [1] is over 100 µM; in the assay with MCF7, 5.91 µM.

As for `COc1cc(/C=C/c2ccc(OC(F)F)c(OS(N)(=O)=O)c2)cc(OC)c1OC`, the IC50 stood at 13.8 µM in the assay on MKN-45; 12.8 µM in the assay on HCT-116; 5.54 µM in the assay on HepG2; 9.24 µM with MGC-803; 8.42 µM with HeLa; 13.8 µM in the assay with MCF7.

Take `COc1cc(/C=C\c2cccc(OS(N)(=O)=O)c2)cc(OC)c1OC`: the IC50 in the assay on MKN-45 was 15.3 µM; in the assay with HCT-116, 9.5 µM; at Tubulin, over 100 µM; in the assay with HepG2, 9.36 µM; in the assay on MGC-803 it was 8.53 µM; in the assay on HeLa, 16.3 µM. Also, the IC50 in assay [1] was determined as 0.47 µM; in the assay on MCF7, 11.1 µM.

Turning to `COc1cc(/C=C\c2ccc(OC(F)F)c(OS(N)(=O)=O)c2)cc(OC)c1OC`, the IC50 was found to be 12.5 µM with MKN-45; 9.11 µM in the assay with HCT-116; 72.6 µM against Tubulin; 4.81 µM in the assay with HepG2; 9 µM in the assay on MGC-803; 7.82 µM in the assay with HeLa. In addition, the IC50 was 4.64 µM in assay [1] and 0.29 µM in the assay with MCF7.

Turning to `COc1cc(/C=C/c2cccc(OS(N)(=O)=O)c2)cc(OC)c1OC`, the IC50 in the assay with MKN-45 was determined as 25 µM; in the assay with HCT-116, 40.3 µM; in the assay on HepG2, 11.8 µM; in the assay on MGC-803 it was 27 µM; with HeLa, 19 µM; with MCF7 it was 27.4 µM.

Consider `COc1cc(CCc2cccc(OS(N)(=O)=O)c2)cc(OC)c1OC`, for which the IC50 was 25.7 µM in the assay on MKN-45; 52.5 µM with HCT-116; 12 µM with HepG2; 17.6 µM with MGC-803; 27.1 µM with HeLa; over 100 µM with MCF7.

`COc1ccc(/C=C\c2cc(OC)c(OC)c(OC)c2)cc1NS(N)(=O)=O`: the IC50 was determined as 9.56 µM in the assay on MKN-45; 3.29 µM with HCT-116; 86.2 µM against Tubulin; 0.75 µM in the assay on HepG2; 0.5 µM in the assay with MGC-803; 0.27 µM with HeLa. Further, the IC50 was over 100 µM in [1] and 11.2 µM with MCF7.

`CNS(=O)(=O)Oc1cc(/C=C\c2cc(OC)c(OC)c(OC)c2)ccc1OC`: the IC50 is 0.0073 µM with MKN-45; 0.0113 µM in the assay on HCT-116; 1.8 µM against Tubulin; 0.0039 µM in the assay on HepG2; 0.0037 µM with MGC-803; 0.0034 µM with HeLa. Further, the IC50 in assay [1] is over 100 µM; with MCF7, 0.53 µM.

Regarding `CCOc1ccc(/C=C\c2cc(OC)c(OC)c(OC)c2)cc1OS(N)(=O)=O`, the IC50 came to 0.32 µM in the assay on MKN-45; 0.55 µM with HCT-116; 3.1 µM on Tubulin; 0.41 µM with HepG2; 0.27 µM in the assay on MGC-803; 0.48 µM in the assay on HeLa. For the same compound, the values for the IC50 (in assay [1]; in the assay on MCF7) were 90.2 µM and 0.3 µM, respectively.

As for `CCOc1ccc(CCc2cc(OC)c(OC)c(OC)c2)cc1OS(N)(=O)=O`, the IC50 with MKN-45 came out at 7.67 µM; in the assay on HCT-116, 10.2 µM; in the assay with HepG2 it was 3.65 µM; in the assay with MGC-803, 3.59 µM; in the assay with HeLa it was 2.93 µM; with MCF7 it was 14.8 µM.

Turning to `COc1ccc(/C=C\c2cc(OC)c(OC)c(OC)c2)cc1OS(=O)(=O)N(C)C`, the IC50 in the assay with MKN-45 amounted to 8.95 µM; in the assay on HCT-116 it was 0.37 µM; against Tubulin, 12.5 µM; in the assay on HepG2 it was 9.96 µM; with MGC-803 it was 7.14 µM; with HeLa it was 14.3 µM. The IC50 was over 100 µM in assay [1] and 11.1 µM with MCF7.

For `COc1ccc(/C=C/c2cc(OC)c(OC)c(OC)c2)cc1NS(N)(=O)=O`, the half-inhibitory concentration (IC50) in the assay on MKN-45 turned out to be 18.9 µM; in the assay on HCT-116, 8.65 µM; in the assay on HepG2 it was 7.53 µM; with MGC-803, 6.19 µM; with HeLa it was 0.38 µM; with MCF7, 17.1 µM.

Regarding `COc1ccc(/C=C\c2cc(OC)c(OC)c(OC)c2)cc1OS(N)(=O)=O`, the IC50 in the assay on MKN-45 came to 0.0095 µM; in the assay with HCT-116, 0.005 µM; against Tubulin, 6.6 µM; with HepG2, 0.0036 µM; in the assay with MGC-803, 0.0047 µM; in the assay with HeLa, 0.0061 µM. Moreover, the IC50 in assay [1] is 6.16 µM; with MCF7, 0.11 µM.

On to `COc1ccc(CCc2cc(OC)c(OC)c(OC)c2)cc1NS(N)(=O)=O`, for which the IC50 in the assay with MKN-45 was determined as 73.9 µM; in the assay on HCT-116, 30.6 µM; in the assay with HepG2 it was 8.1 µM; in the assay on MGC-803, 8.21 µM; in the assay on HeLa it was 2.93 µM; in the assay on MCF7, 20.1 µM.

Consider `CCOc1ccc(/C=C/c2cc(OC)c(OC)c(OC)c2)cc1OS(N)(=O)=O`, for which the IC50 in the assay with MKN-45 worked out at 8.05 µM; in the assay with HCT-116 it was 9.12 µM; in the assay with HepG2, 2.63 µM; in the assay with MGC-803, 7.63 µM; with HeLa, 5.64 µM; in the assay on MCF7 it was 13.7 µM.

Consider `COc1cc(CCc2ccc(OC(F)F)c(OS(N)(=O)=O)c2)cc(OC)c1OC`, for which the IC50 was determined as 71.4 µM in the assay with MKN-45; 26.5 µM in the assay with HCT-116; 15.9 µM in the assay with HepG2; 23.3 µM in the assay on MGC-803; 35.6 µM in the assay on HeLa; 52.7 µM in the assay on MCF7.

`COc1cc2c(cc1O)CC[C@@H]1[C@@H]2CC[C@]2(C)[C@@H](O)CC[C@@H]12` [2-METHOXYESTRADIOL] had an IC50 in [2] of 40 µM.

Regarding `COc1ccc(/C=C\c2cc(OC)c(OC)c(OC)c2)cc1O` [COMBRETASTATIN A4], the half-inhibitory concentration (IC50) with MKN-45 was 0.0081 µM; with HCT-116 it was 0.0047 µM; with HepG2, 0.0029 µM; with MGC-803 it was 0.006 µM; in assay [1] it was over 100 µM; in the assay with MCF7, 0.14 µM.

As to `C[C@]12CC[C@@H]3c4ccc(OS(N)(=O)=O)cc4CC[C@H]3[C@@H]1CCC2=O` [EMATE], the IC50 stood at 0.54 µM with MKN-45; 0.9 µM in the assay on HCT-116; 25.9 µM on Tubulin; 0.85 µM in the assay with HepG2; 0.48 µM in the assay with MGC-803; 0.63 µM with HeLa. The IC50 came to 5.01 µM in [1] and 0.07 µM in the assay with MCF7.

These data come from ChEMBL document CHEMBL5120740, “Design, synthesis and biological evaluation of combretastatin A-4 sulfamate derivatives as potential anti-cancer agents” (RSC Med Chem, 2021).
